Source: PMC9222498 (Bioactive Materials, 2022)

Columns and labels:
[1] = test system: orthotopic 4T1 breast cancer model; experiment: In vivo antitumor activity, orthotopic 4T1 breast cancer model; design: species or system BALB/c mice; conditions: 10 mg/kg SN38 equiv., i.v., days 0, 3, 6
[2] = test system: 4T1 spontaneous metastasis model; experiment: In vivo antimetastatic activity, 4T1 spontaneous metastasis model; design: species or system mice; conditions: Day 24
[3] = test system: Carboxylesterase; conditions: after intravenous administration; ref [51]; cited from earlier work

Compound: CCc1c2c(nc3ccc(OC(=O)N4CCC(N5CCCCC5)CC4)cc13)-c1cc3c(c(=O)n1C2)COC(=O)[C@]3(O)CC [CPT-11, irinotecan]
- primary tumor growth [1]: similarly rapid tumor growth compared with the saline-treated group
- metastasizing tumor cells in liver and lung (H&E) [2]: clearly detected metastasizing tumor cells in liver and lung
- metastatic burden in lymph nodes (H&E) ([2]; ipsilateral inguinal lymph node): did not significantly reduce the metastatic burden
- enzymatic conversion rate to SN38 [3]: < 8%
